These results are taken from PubChem BioAssay (NCI).

The structures appear in SMILES notation.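 Compound exposure: 48 hours, 5 concentrations, 96-well plates. The concentration for full growth arrest is given as TGI.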

Among the test systems are KM20L2 colon; SNB-78 CNS; RXF-631 renal; HOP-18 NSCLC; M19-MEL melanoma; XF 498 CNS; P388 leukemia; P388/ADR leukemia; SN12K1 renal; LXFL 529 NSCLC.
What all share (assay): NCI tumour cell line growth inhibition, 48 h

In the case of `COc1ccc(C2C(C(=O)O)=C(COC(C)=O)Oc3cc4c(cc32)OCO4)cc1` (centres undefined), the TGI in the test with KM20L2 colon, with SNB-78 CNS, with RXF-631 renal, in the test on HOP-18 NSCLC, in the test on M19-MEL melanoma and in the test on XF 498 CNS was over 100 µM in each case.

`Cc1cc(=O)c2c(O)c3c(O)cc(O)c4c5c(O)cc(O)c6c(O)c7c(=O)cc(C)c8c1c2c(c34)c(c65)c78`: the TGI with KM20L2 colon was 49.2 µM; in the test with SNB-78 CNS, over 77.3 µM; in the test on P388 leukemia, 72.8 µM; in the test with P388/ADR leukemia it was over 100 µM; in the test on HOP-18 NSCLC, over 100 µM; in the test with SN12K1 renal, over 100 µM. The TGI in the test with M19-MEL melanoma was over 63.6 µM; in the test with XF 498 CNS it was over 100 µM.

For the compound `CCN(CC)C(=O)c1c(N2CCOCC2)cc(N(CC)CC)oc1=O`, the TGI in the test on KM20L2 colon, with SNB-78 CNS, in the test on LXFL 529 NSCLC, with HOP-18 NSCLC, in the test on M19-MEL melanoma and with XF 498 CNS was over 100 µM in each case.

Consider `C[C@]12CCC(=O)C=C1CC[C@@H]1[C@@H]2C(=O)C[C@@]2(C)[C@H]1CC[C@]2(O)C(=O)CO`, for which the TGI in the test with KM20L2 colon, in the test on LXFL 529 NSCLC, in the test with HOP-18 NSCLC, in the test on M19-MEL melanoma and in the test with XF 498 CNS was over 100 µM each time.

As to `CC(=O)c1ccc(NC(=O)/C(=N\NC(N)=O)C(C#N)CC(C)(C)C=O)cc1` (centres undefined), the TGI in the test with KM20L2 colon, with SNB-78 CNS, in the test on LXFL 529 NSCLC, in the test on M19-MEL melanoma and with XF 498 CNS was over 100 µM throughout.

With `COCC(=O)[C@]1(O)Cc2c(O)c3c(c(O)c2[C@@H](OC2CC(N)C(O)C(C)O2)C1)C(=O)c1c(OC)cccc1C3=O` (some centres undefined), the TGI in the test with KM20L2 colon turned out to be 0.938 µM; in the test on SNB-78 CNS, 30.6 µM; in the test on LXFL 529 NSCLC, 2.11 µM; with M19-MEL melanoma, 0.339 µM.

Consider `Cc1ccc(NC(=O)c2cccc([N+](=O)[O-])c2O)c(C)c1`, for which the TGI is over 100 µM in the test with KM20L2 colon; over 100 µM in the test on SNB-78 CNS; over 100 µM in the test on LXFL 529 NSCLC; 6.44 µM in the test with HOP-18 NSCLC; over 100 µM in the test on M19-MEL melanoma.

With `O=C(c1ccc(Cl)cc1)N(C(=S)N1CCN(c2ccccn2)CC1)c1ccccc1`, the TGI in the test with KM20L2 colon, in the test on SNB-78 CNS, with LXFL 529 NSCLC, in the test with HOP-18 NSCLC and in the test on M19-MEL melanoma was over 100 µM throughout.
